Reference: ChEMBL document CHEMBL5649166, “RIP3 induces apoptosis independent of pronecrotic kinase activity” (Mol Cell, 2014)

Columns and labels:
[1] = target: Ribosomal protein S6 kinase alpha-2 (Homo sapiens) (UniProt Q15349); test: Inhibition of human RSK3 using KKLNRTLSVA as substrate at 1 uM in presence of 32P-ATP by Hotspot assay relative to control; values are per cent of control
[2] = target: Epidermal growth factor receptor (Homo sapiens) (UniProt P00533); test: Inhibition of human EGFR using poly[Glu:Tyr] (4:1) as substrate at 1 uM in presence of 32P-ATP by Hotspot assay relative to control; values are per cent of control
MEF = test: Induction of apoptosis in RIP3-/- MEF cells transfected with human RIP3 incubated for 18 hrs by Cell Titer-Glo luminescent cell viability assay; type: toxicity, cell-based; conditions: mouse
[3] = target: Tyrosine-protein kinase Yes (Homo sapiens) (UniProt P07947); test: Inhibition of human YES/YES1 using poly[Glu:Tyr] (4:1) as substrate at 1 uM in presence of 32P-ATP by Hotspot assay relative to control; values are per cent of control
[4] = target: Focal adhesion kinase 1 (Homo sapiens) (UniProt Q05397); test: Inhibition of human FAK/PTK2 using poly[Glu:Tyr] (4:1) as substrate at 1 uM in presence of 32P-ATP by Hotspot assay relative to control; values are per cent of control
Homo sapiens = organism: Homo sapiens; test: Inhibition of human TAOK2/TAO1 using myelin basic protein as substrate at 1 uM in presence of 32P-ATP by Hotspot assay relative to control; values are per cent of control
[5] = target: RAC-beta serine/threonine-protein kinase (Homo sapiens) (UniProt P31751); test: Inhibition of human AKT2 using KGSGSGRPRTSSFAEG as substrate at 1 uM in presence of 32P-ATP by Hotspot assay relative to control; values are per cent of control
[6] = target: Ephrin type-A receptor 2 (Homo sapiens) (UniProt P29317); test: Inhibition of human EPHA2 using poly[Glu:Tyr] (4:1) as substrate at 1 uM in presence of 32P-ATP by Hotspot assay relative to control; values are per cent of control
[7] = target: Tyrosine-protein kinase ABL2 (Homo sapiens) (UniProt P42684); test: Inhibition of human ABL2/ARG using EAIYAAPFAKKK as substrate at 1 uM in presence of 32P-ATP by Hotspot assay relative to control; values are per cent of control
[8] = target: T1, Serine/threonine-protein kinase TAO1 (Homo sapiens) (UniProt Q7L7X3); test: Inhibition of human TAOK1 using myelin basic protein as substrate at 1 uM in presence of 32P-ATP by Hotspot assay relative to control; values are per cent of control
T1 sequence (whole entry): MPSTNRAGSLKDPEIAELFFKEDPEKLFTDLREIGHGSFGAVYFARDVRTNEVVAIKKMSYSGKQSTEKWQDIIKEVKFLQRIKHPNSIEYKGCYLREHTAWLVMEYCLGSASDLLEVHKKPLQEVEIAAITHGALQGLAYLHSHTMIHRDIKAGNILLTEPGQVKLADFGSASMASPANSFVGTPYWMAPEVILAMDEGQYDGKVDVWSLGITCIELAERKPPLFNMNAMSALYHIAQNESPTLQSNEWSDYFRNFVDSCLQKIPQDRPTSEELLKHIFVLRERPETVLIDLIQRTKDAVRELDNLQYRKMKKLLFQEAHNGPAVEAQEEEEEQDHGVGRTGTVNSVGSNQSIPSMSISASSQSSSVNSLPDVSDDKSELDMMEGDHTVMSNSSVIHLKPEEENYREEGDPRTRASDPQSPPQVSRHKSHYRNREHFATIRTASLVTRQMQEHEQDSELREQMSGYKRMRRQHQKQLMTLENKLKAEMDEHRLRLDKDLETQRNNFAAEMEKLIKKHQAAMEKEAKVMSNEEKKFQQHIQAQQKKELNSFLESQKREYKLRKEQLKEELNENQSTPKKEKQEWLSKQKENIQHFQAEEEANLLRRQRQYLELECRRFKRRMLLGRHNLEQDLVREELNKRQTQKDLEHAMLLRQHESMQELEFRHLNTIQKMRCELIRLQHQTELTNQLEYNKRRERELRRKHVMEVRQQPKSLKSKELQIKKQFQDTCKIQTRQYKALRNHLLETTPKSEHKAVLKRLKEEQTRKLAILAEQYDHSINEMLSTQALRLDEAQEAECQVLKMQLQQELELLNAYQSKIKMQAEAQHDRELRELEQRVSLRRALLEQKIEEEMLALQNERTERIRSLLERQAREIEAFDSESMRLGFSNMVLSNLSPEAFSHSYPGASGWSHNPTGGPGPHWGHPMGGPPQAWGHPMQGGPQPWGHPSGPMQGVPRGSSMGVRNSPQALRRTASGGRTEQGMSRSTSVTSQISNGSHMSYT

[9] = target: Serine/threonine-protein kinase pim-1 (Homo sapiens) (UniProt P11309); test: Inhibition of human PIM1 using RSRHSSYPAGT as substrate at 1 uM in presence of 32P-ATP by Hotspot assay relative to control; values are per cent of control
[10] = target: PAS domain-containing serine/threonine-protein kinase (Homo sapiens) (UniProt Q96RG2); test: Inhibition of human PASK using KKLNRTLSFAEPG as substrate at 1 uM in presence of 32P-ATP by Hotspot assay relative to control; values are per cent of control
Chain of PAS domain-containing serine/threonine-protein kinase (Homo sapiens) (Q96RG2 whole entry, the tested form may be a part): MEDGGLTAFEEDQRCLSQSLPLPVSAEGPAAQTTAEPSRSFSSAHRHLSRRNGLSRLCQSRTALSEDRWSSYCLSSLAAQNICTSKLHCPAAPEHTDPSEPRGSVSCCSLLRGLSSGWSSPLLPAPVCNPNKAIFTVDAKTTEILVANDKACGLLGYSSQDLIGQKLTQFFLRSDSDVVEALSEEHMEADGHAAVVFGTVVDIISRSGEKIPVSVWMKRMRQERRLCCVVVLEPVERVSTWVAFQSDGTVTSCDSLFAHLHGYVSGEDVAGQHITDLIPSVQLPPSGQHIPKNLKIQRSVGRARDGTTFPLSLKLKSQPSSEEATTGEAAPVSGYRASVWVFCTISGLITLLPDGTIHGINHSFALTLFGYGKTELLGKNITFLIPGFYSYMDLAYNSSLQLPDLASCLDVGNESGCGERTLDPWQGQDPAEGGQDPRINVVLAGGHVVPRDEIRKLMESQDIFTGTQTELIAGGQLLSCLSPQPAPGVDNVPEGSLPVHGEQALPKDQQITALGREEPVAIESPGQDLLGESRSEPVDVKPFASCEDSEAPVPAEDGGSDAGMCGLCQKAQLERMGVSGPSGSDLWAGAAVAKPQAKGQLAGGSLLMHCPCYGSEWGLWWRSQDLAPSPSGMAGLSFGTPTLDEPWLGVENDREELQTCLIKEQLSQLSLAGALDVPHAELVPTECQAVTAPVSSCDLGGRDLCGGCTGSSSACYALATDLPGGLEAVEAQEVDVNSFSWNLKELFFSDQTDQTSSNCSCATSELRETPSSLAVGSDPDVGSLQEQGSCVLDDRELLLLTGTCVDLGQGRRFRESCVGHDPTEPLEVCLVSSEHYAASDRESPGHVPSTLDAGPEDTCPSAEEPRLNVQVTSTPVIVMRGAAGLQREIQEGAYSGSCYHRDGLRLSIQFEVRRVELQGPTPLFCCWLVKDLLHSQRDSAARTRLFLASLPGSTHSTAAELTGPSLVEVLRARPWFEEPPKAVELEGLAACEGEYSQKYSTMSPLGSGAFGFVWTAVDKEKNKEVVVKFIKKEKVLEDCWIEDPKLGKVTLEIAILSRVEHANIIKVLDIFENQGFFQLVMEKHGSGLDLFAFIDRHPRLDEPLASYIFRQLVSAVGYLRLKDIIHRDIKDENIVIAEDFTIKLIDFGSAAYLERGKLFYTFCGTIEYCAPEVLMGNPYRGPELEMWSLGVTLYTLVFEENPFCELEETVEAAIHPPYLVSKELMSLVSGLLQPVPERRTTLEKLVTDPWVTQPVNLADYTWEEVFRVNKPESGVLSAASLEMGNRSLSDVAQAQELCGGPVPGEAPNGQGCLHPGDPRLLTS

Chain of Focal adhesion kinase 1 (Homo sapiens) (Q05397 2-1052 limits assumed): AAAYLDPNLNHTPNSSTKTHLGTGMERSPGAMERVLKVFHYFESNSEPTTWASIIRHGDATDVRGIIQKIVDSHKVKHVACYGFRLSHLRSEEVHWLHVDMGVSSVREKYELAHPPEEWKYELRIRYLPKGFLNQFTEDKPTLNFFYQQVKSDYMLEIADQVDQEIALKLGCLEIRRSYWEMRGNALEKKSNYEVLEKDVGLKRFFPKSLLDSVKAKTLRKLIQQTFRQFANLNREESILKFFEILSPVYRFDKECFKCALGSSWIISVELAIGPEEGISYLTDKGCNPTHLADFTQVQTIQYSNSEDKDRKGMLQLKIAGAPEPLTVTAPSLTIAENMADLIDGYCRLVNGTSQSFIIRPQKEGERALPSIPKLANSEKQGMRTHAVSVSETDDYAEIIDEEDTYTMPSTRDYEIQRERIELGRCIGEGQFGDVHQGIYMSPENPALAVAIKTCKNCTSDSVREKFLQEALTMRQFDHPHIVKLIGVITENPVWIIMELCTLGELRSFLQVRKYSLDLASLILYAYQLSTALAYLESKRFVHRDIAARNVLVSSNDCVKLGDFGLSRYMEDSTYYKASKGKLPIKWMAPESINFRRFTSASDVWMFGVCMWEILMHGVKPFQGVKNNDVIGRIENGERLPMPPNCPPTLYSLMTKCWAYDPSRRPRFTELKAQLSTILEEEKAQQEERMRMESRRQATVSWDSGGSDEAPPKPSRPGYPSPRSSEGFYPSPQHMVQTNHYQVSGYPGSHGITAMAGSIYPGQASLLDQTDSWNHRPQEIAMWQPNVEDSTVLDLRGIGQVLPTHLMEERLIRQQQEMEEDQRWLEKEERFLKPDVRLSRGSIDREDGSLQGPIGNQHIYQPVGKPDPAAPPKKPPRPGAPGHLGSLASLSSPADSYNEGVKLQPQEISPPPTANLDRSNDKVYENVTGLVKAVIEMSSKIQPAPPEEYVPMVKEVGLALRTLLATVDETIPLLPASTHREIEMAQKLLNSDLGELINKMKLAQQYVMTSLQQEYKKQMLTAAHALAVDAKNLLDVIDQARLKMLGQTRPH
Chain of Serine/threonine-protein kinase pim-1 (Homo sapiens) (P11309 whole entry, looked up, the tested form may be a part): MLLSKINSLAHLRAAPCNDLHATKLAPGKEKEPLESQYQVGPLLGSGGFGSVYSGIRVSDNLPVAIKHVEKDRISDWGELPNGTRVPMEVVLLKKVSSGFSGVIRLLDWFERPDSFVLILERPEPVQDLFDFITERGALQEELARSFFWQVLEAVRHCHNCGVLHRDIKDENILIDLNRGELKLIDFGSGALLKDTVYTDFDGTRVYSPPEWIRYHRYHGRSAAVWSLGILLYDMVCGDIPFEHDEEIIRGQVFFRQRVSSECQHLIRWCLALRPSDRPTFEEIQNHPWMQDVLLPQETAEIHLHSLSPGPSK
Chain of Tyrosine-protein kinase Yes (Homo sapiens) (P07947 2-543 limits assumed): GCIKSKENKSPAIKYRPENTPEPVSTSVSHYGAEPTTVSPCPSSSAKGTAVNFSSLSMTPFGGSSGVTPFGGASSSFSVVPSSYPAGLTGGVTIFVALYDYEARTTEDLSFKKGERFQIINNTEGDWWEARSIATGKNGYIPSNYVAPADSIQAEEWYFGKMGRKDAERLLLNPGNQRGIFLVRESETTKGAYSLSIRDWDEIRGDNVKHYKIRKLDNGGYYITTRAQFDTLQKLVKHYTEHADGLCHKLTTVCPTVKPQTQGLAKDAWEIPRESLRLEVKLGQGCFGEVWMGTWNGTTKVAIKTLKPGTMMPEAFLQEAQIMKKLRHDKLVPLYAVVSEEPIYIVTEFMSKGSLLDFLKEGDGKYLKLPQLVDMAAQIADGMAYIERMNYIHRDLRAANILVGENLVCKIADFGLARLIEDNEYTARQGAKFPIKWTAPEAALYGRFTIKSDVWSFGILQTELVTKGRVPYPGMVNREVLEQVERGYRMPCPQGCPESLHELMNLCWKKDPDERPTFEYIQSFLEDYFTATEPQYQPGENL
Chain of Tyrosine-protein kinase ABL2 (Homo sapiens) (P42684 whole entry): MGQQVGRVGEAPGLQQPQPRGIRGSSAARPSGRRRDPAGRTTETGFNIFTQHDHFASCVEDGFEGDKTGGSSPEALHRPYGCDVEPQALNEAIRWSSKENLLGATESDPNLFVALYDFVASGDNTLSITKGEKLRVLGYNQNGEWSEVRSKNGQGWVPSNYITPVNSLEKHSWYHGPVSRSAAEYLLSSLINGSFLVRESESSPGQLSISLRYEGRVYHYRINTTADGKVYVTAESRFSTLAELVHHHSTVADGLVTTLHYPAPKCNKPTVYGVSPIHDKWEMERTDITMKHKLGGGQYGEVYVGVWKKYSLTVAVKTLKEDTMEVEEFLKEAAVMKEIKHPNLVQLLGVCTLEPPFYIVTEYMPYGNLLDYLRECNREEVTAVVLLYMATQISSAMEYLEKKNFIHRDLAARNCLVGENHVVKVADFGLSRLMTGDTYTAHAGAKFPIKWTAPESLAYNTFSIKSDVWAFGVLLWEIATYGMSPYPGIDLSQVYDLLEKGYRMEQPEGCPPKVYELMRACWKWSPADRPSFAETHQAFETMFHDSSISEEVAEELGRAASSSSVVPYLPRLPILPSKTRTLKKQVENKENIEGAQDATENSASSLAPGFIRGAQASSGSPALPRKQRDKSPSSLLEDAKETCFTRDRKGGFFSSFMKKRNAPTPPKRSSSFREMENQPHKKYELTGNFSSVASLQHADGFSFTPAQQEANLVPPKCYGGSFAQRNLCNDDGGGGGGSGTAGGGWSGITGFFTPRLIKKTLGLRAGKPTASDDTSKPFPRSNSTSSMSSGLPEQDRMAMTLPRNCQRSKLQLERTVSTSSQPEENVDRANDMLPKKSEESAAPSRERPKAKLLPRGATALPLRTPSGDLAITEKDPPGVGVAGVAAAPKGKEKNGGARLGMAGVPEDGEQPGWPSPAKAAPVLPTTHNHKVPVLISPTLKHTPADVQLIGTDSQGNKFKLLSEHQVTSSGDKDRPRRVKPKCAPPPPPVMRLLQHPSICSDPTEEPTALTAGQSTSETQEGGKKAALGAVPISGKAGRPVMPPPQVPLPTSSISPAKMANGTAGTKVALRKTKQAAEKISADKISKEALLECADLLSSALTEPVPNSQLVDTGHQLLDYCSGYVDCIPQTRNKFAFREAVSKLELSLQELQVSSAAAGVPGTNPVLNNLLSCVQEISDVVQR
Chain of RAC-beta serine/threonine-protein kinase (Homo sapiens) (P31751 whole entry): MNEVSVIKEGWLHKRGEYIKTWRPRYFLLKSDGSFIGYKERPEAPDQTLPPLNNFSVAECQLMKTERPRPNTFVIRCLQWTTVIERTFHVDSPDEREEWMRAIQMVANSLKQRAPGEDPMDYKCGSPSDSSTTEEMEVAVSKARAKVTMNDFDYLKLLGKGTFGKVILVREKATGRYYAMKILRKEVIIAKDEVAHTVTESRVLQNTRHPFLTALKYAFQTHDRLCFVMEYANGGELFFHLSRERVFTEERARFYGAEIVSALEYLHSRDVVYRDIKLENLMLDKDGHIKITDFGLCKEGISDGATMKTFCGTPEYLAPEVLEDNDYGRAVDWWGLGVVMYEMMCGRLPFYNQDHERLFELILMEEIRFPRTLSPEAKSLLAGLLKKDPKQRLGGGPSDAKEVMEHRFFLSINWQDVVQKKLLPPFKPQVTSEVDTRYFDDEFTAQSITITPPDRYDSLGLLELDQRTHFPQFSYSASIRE

CC(C)S(=O)(=O)c1ccc2nccc(Nc3ccc4scnc4c3)c2c1
residual activity [1]: 96%
residual activity [2]: 90.7%
Activity (MEF): Toxic
residual activity [3]: 20.1%
residual activity [4]: 93.9%
residual activity (Homo sapiens): 93.4%
residual activity [5]: 89%
residual activity [6]: 80.1%
residual activity [7]: 12%
residual activity [8]: 93.8%
residual activity [9]: 96.4%
residual activity [10]: 96.5%

Cc1cc(-c2cnc(N)c3c(-c4ccc5scnc5c4)csc23)n(C)n1
residual activity [1]: 103%
residual activity [2]: 93.9%
Activity (MEF): Toxic
residual activity [3]: 17%
residual activity [4]: 97.3%
residual activity (Homo sapiens): 97.1%
residual activity [5]: 95.4%
residual activity [6]: 74.3%
residual activity [7]: 7.38%
residual activity [8]: 92.6%
residual activity [9]: 98.4%
residual activity [10]: 93.1%

CNC(=O)c1ccc2c(c1)ncn2-c1ccc(CC(=O)OC(C)(C)C)cc1
residual activity [1]: 97.1%
residual activity [2]: 97.7%
Activity (MEF): Toxic
residual activity [3]: 39.6%
residual activity [4]: 102%
residual activity (Homo sapiens): 102%
residual activity [5]: 96.8%
residual activity [6]: 97.3%
residual activity [7]: 78.2%
residual activity [8]: 98.8%
residual activity [9]: 98.5%
residual activity [10]: 99.8%
